Publication PMC4492822 (EMBO Molecular Medicine, 2015)

Experiments:
[1] = tested on: Twist1/Kras^G12D lung tumors; assay: Twist1/KrasG12D lung tumor model, fractionated radiation (10 fractions of 3 Gy); type: in vivo, mouse; conditions: 3 weeks following treatment
Protocol: Inducible Twist1/Kras^G12D transgenic mice in the FVB/N inbred background were of the genotype: CCSP-rtTA/tetO-KrasG12D/Twist1-tetO-luc (Tran et al, [2012]). All the mice were weaned 3–4 weeks of age and then placed on dox at 4–6 weeks of age. Mice were treated with similar levels of tumor burden per micro-CT and were typically 20–30 weeks old. Mice were treated as in Fig6C and H. Each group consisted of mice, of which multiple index tumors were followed in time by micro-CT and quantified by a board-certified radiation oncologist (JZ) in a blinded fashion. Bi-dimensional measurements were made on tumors using serial examinations and tumor volumes calculated using the equation Volume = π/6 × 1.65 (length × width) × 3/2. Volumes were normalized to the starting volume, t = 0 before treatment. For 15-Gy SABR experiments, the breakdown of animal usage is (1) RT = 3 female mice, (2) RK-33 = 3 females and 1 male mice, (3) carboplatin = 3 male mice, (4) RT + carboplatin = 3 female mice, and (5) RT + RK-33 = 5 female mice. […]
The mice underwent micro-CT imaging by use of the Small Animal Radiation Research Platform (SARRP) irradiator described earlier (Wong et al, [2008]). […] Tumor volumes were quantified from the CT dataset with Pinnacle3 software v.8.1y (Philips Inc, Madison, WI) as described previously (Tran et al, [2011]; Zeng et al, [2013]). […]

[2] = tested on: A549 human lung cancer cells; assay: Orthotopic A549 lung cancer model with radiation; type: in vivo, athymic NCr-nu/nu mice; conditions: i.p. RK-33 with radiation, schedule as Fig6C
Protocol: Athymic NCr-nu/nu female mice 4–5 weeks old were purchased from NCI Frederick. A total of 1 × 10^6 A549 cells were injected in the tail vein of ten mice. Treatment (five animals per group) was started 4 weeks after inoculation of tumor cells. Since tumor volumes could not be determined by micro-CT, tumor burden was established at necropsy by histopathology, 8 weeks after inoculation of tumor cells. All five lung lobes were paraffin-embedded and mid-lung sections were stained with H&E. Slides were digitalized; lung and tumor surface area was calculated with ImageScope (Aperio Technologies, Vista, CA, USA), as tumor burden = tumor surface/lung surface.
(§1) Cells were irradiated at room temperature with 0.5 Gy/min to the desired dose using a Gammacell 40 ^137Cs irradiator. For in vivo experiments, mice were treated using the Small Animal Radiation Research Platform (Wong et al, [2008]). The tumors were irradiated with a circular beam of 1 cm diameter.

[3] = tested on: H1299 cells; assay: qRT-PCR of TCF-regulated genes; type: cell-based
Text: RNA was extracted according to the manufacturer's instructions (Qiagen, Valencia, CA, USA), and cDNA was manufactured using qScript cDNA synthesis kit (Quanta BioSciences, Gaithersburg, MD, USA), followed by qPCR using SYBR green (Quanta BioSciences) on an iCycler5 (Bio-Rad, Hercules, CA, USA). Amplification of 36B4, a housekeeping gene, was used for normalizing gene expression values.

[4] = target: DDX3 (Homo sapiens, UniProt O00571); assay: Biotin bead pull-down assay with biotinylated RK-33 (AK-298, SK-153), immunoblot; type: binding; conditions: biotinylated RK-33 molecules, 10 μM
DDX3, sequence (O00571 2-582): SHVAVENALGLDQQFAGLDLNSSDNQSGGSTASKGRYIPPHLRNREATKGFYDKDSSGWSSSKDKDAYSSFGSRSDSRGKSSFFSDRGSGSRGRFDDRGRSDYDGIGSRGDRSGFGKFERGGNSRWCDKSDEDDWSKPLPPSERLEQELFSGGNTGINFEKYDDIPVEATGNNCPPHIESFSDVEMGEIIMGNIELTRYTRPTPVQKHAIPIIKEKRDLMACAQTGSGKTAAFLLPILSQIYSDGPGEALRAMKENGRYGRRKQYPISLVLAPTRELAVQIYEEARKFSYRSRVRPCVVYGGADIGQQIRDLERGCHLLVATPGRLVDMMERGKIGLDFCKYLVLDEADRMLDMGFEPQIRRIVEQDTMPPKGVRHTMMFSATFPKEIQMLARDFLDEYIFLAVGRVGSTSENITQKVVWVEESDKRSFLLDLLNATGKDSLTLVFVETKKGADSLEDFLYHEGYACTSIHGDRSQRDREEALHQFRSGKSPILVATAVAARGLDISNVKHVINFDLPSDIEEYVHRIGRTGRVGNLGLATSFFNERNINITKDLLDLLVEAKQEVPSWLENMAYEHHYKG
Protocol: Mean from 3 replicates with SD. • J, K Colony-forming assay of A549 and H3255 cells treated with RK-33 and with various doses of radiation 4 h later. Curves were fitted with a quadratic polynomial equation. Mean from 2 replicates with SD. P-values were determined by the extra sum of squares F-test. Source data are available online for this figure.
Two plates of 70% confluent cells were lysed with IP lysis buffer (Tris–HCl (pH 7.4) 25 mM, NaCl 150 mM, EDTA 1 mM, NP-40 1%, glycerol 5%, protease inhibitor). […] Streptavidin beads were added and incubated for 1 h at room temperature. The biotin-bead–RK-33 complex was extracted with a magnetic stand and washed seven times with PBS. Proteins were analyzed by immunoblot.

[5] = tested on: A549 cells; assay: Cell cycle analysis by flow cytometry; type: cell-based, human; conditions: 0, 2, 4, and 6 μM, dose-dependent
Protocol: (§2) A549 and H1299 cells were plated at 1 × 10^5 cells per well of a 6-well plate. Cell cycle was carried out as previously described (Vesuna et al, [2012]). Briefly, cells were trypsinized 24 h after plating and fixed in 70% ethanol overnight at −20°C. Fixed cells were washed with PBS and resuspended in DNA-staining solution (5 μg/ml propidium iodide, 0.5 mg/ml RNase A) for 1 h at room temperature. Cell cycle acquisition was performed on a FACScan I or FACSCalibur instrument (BD Biosciences, San Jose, CA, USA). Independent experiments were repeated three times. Data were analyzed using FlowJo software (Tree Star Inc., Ashland, OR, USA).

[6] = tested on: H1299 cells; assay: Cell cycle analysis by flow cytometry; type: cell-based; conditions: 0, 2, 4, and 6 μM, dose-dependent
Protocol: as §2

[7] = tested on: lung cancer cell lines (A549, H1299, H460, H23, and H196); assay: Combination experiments with chemotherapy; type: cell-based
[8] = tested on: TCF4 activity in H1299 cells; assay: TCF reporter assay (TOP/FOP-FLASH); type: cell-based; conditions: 0, 1, 2, and 3 μM; wild-type and β-catenin-overexpressing cells
Protocol: Transcriptional activity of TCF4 was assayed using the dual luciferase assay (Promega, Madison, WI, USA) according to the manufacturer's instructions. Briefly, 1.5 × 10^4 A549 or H1299 cells were transfected with 500 ng of TOP-FLASH and control FOP-FLASH constructs along with 50 ng of phRL Renilla constructs as transfection controls as well as with 500 ng β-catenin constructs when indicated. Cells were cultured for 24 h and then lysed in passive lysis buffer. Luminescence was detected using a luminometer (Berthold Sirius, Oak Ridge, TN, USA). Relative TCF4 promoter activity was calculated by dividing firefly luminescence by Renilla luminescence, and then normalized TOP-FLASH was divided by normalized FOP-FLASH, which was finally normalized to vector or DMSO control cells. All experiments were repeated three times, and differences were assessed by the paired t-test.

[9] = tested on: Twist1/Kras^G12D lung tumors; assay: Twist1/KrasG12D autochthonous lung tumor model, hypofractionated radiation (SABR); type: in vivo, mouse
Protocol: Inducible Twist1/Kras^G12D transgenic mice in the FVB/N inbred background were of the genotype: CCSP-rtTA/tetO-KrasG12D/Twist1-tetO-luc (Tran et al, [2012]). All the mice were weaned 3–4 weeks of age and then placed on dox at 4–6 weeks of age. Mice were treated with similar levels of tumor burden per micro-CT and were typically 20–30 weeks old. Mice were treated as in Fig6C and H. Each group consisted of mice, of which multiple index tumors were followed in time by micro-CT and quantified by a board-certified radiation oncologist (JZ) in a blinded fashion. Bi-dimensional measurements were made on tumors using serial examinations and tumor volumes calculated using the equation Volume = π/6 × 1.65 (length × width) × 3/2. Volumes were normalized to the starting volume, t = 0 before treatment. For 15-Gy SABR experiments, the breakdown of animal usage is (1) RT = 3 female mice, (2) RK-33 = 3 females and 1 male mice, (3) carboplatin = 3 male mice, (4) RT + carboplatin = 3 female mice, and (5) RT + RK-33 = 5 female mice. For the 3-Gy XRT experiments, animals used were (1) RT = 3 female and three male mice and (2) RT + RK-33 = four female and three male mice.
as §1
The mice underwent micro-CT imaging by use of the Small Animal Radiation Research Platform (SARRP) irradiator described earlier (Wong et al, [2008]). The uncollimated primary beam was used for imaging. A total of 1,800 projections were acquired at approximately 0.2 angular increments. The Feldkamp CBCT algorithm was used for reconstruction. Tumor volumes were quantified from the CT dataset with Pinnacle3 software v.8.1y (Philips Inc, Madison, WI) as described previously (Tran et al, [2011]; Zeng et al, [2013]). Briefly, we viewed 2D images in sagittal, coronal, and transverse views to detect tumors and track them over time. […]

Question: What does the source list for “diimidazo[4,5-d:4′,5′-f]-[1,3]diazepine [RK-33]”?
Answer: decrease in tumor growth, RK-33 and radiation versus radiation [1]: not significant; enhancement of radiation-induced tumor regression (tumor burden) [2]: 2.6 fold; reduction of Axin-2 mRNA expression [3]: 1.8 fold; reduction of Cyclin D1 mRNA expression [3]: 2.4 fold; binding to DDX3 in pull-down [4]: binds specifically to DDX3; cell cycle effect [5]: G1 arrest; cell cycle effect [6]: G1 arrest; synergy of RK-33 + cisplatin [7]: did not observe significant synergy; synergy of RK-33 + paclitaxel [7]: did not observe significant synergy; TCF activity [8]: reduced TCF activity significantly; Ki67 positive cells in lung tumors ([9]; RK-33 and radiation treatment): decrease in Ki67 positive cells; enhancement of the radiation effect (tumor volume by micro-CT) ([9]; i.p. RK-33 with 15-Gy SABR, 1 week after treatment): 3.7 fold; radiation sensitization relative to that caused by carboplatin ([9]; with SABR): 1.5 fold
